Source: ChEMBL document CHEMBL3872243, “Synthesis of new morpholine-connected pyrazolidine derivatives and their antimicrobial, antioxidant, and cytotoxic activities” (2017)
Values after ≈ are worked out from the molar mass of the structure shown.

System: Aspergillus niger
Assay: Antifungal activity against Aspergillus niger after 24 hrs by two fold dilution method
Assay type: functional
Details: not given
`O=[N+]([O-])c1ccc(N2C(O)CC(c3ccccc3)N2C(c2ccccc2)N2CCOCC2)c([N+](=O)[O-])c1` (centres undefined) showed an MIC greater than 100 µg/mL.
`Clc1ccccc1C(c1ccccc1)(c1ccccc1)n1ccnc1` [CLOTRIMAZOLE] gave an MIC of 2 µg/mL (≈ 5.8 µM).
For `O=[N+]([O-])c1ccc(N2C(O)CC(c3ccccc3)N2C(c2c[nH]c3ccccc23)N2CCOCC2)c([N+](=O)[O-])c1` (centres undefined), the MIC was 16 µg/mL (≈ 29.4 µM).
Compound `O=[N+]([O-])c1ccc(N2C(O)CC(c3ccccc3)N2C(c2ccc(O)cc2)N2CCOCC2)c([N+](=O)[O-])c1` (centres undefined) has an MIC greater than 100 µg/mL.

System: not listed separately
Assay: Antioxidant activity assessed as reduction in AAPH free radical-induced linoleic acid peroxidation activity measured at 100 ug/ml by UV spectroscopic analysis
Assay type: functional
Parameters: scale not given: the % may be the effect or the level left
Details: not given
With `O=[N+]([O-])c1ccc(N2C(O)CC(c3ccccc3)N2C(c2ccccc2)N2CCOCC2)c([N+](=O)[O-])c1` (centres undefined) the Activity was 21.8%.
For `O=[N+]([O-])c1ccc(N2C(O)CC(c3ccccc3)N2C(c2c[nH]c3ccccc23)N2CCOCC2)c([N+](=O)[O-])c1` (centres undefined), the Activity was 34.6%.
`O=[N+]([O-])c1ccc(N2C(O)CC(c3ccccc3)N2C(c2ccc(O)cc2)N2CCOCC2)c([N+](=O)[O-])c1` (centres undefined) gave an Activity of 75.4%.

System: Staphylococcus epidermidis
Assay: Antibacterial activity against Staphylococcus epidermidis after 24 hrs by two fold dilution method
Assay type: functional
Details: not given
For `O=[N+]([O-])c1ccc(N2C(O)CC(c3ccccc3)N2C(c2c[nH]c3ccccc23)N2CCOCC2)c([N+](=O)[O-])c1` (centres undefined), the MIC was greater than 100 µg/mL.

System: Staphylococcus aureus
Assay: Antibacterial activity against Staphylococcus aureus after 24 hrs by two fold dilution method
Assay type: functional
Details: not given
Work on `O=[N+]([O-])c1ccc(N2C(O)CC(c3ccccc3)N2C(c2c[nH]c3ccccc23)N2CCOCC2)c([N+](=O)[O-])c1` (centres undefined) yielded an MIC of 1 µg/mL (≈ 1.84 µM).

System: Candida albicans
Assay: Antifungal activity against Candida albicans after 24 hrs by two fold dilution method
Assay type: functional
Details: not given
For `O=[N+]([O-])c1ccc(N2C(O)CC(c3ccccc3)N2C(c2ccccc2)N2CCOCC2)c([N+](=O)[O-])c1` (centres undefined), the MIC was greater than 100 µg/mL.
Work on `Clc1ccccc1C(c1ccccc1)(c1ccccc1)n1ccnc1` [CLOTRIMAZOLE] yielded an MIC of 1 µg/mL (≈ 2.9 µM).
Work on `O=[N+]([O-])c1ccc(N2C(O)CC(c3ccccc3)N2C(c2c[nH]c3ccccc23)N2CCOCC2)c([N+](=O)[O-])c1` (centres undefined) yielded an MIC of 32 µg/mL (≈ 58.8 µM).

System: not listed separately
Assay: Antioxidant activity assessed as ABTS radical scavenging activity at 100 ug/ml after 30 mins
Assay type: functional
Details: not given
`O=[N+]([O-])c1ccc(N2C(O)CC(c3ccccc3)N2C(c2ccccc2)N2CCOCC2)c([N+](=O)[O-])c1` (centres undefined) gave an Activity of 34.6%.
For `O=[N+]([O-])c1ccc(N2C(O)CC(c3ccccc3)N2C(c2c[nH]c3ccccc23)N2CCOCC2)c([N+](=O)[O-])c1` (centres undefined), the Activity was 27.8%.
`O=[N+]([O-])c1ccc(N2C(O)CC(c3ccccc3)N2C(c2ccc(O)cc2)N2CCOCC2)c([N+](=O)[O-])c1` (centres undefined) showed an Activity of 81.6%.

System: Klebsiella pneumoniae
Assay: Antibacterial activity against Klebsiella pneumoniae after 24 hrs by two fold dilution method
Assay type: functional
Details: not given
With `O=[N+]([O-])c1ccc(N2C(O)CC(c3ccccc3)N2C(c2ccccc2)N2CCOCC2)c([N+](=O)[O-])c1` (centres undefined) the MIC was greater than 100 µg/mL.
`O=[N+]([O-])c1ccc(N2C(O)CC(c3ccccc3)N2C(c2c[nH]c3ccccc23)N2CCOCC2)c([N+](=O)[O-])c1` (centres undefined) showed an MIC greater than 100 µg/mL.
With `O=[N+]([O-])c1ccc(N2C(O)CC(c3ccccc3)N2C(c2ccc(O)cc2)N2CCOCC2)c([N+](=O)[O-])c1` (centres undefined) the MIC was 8 µg/mL (≈ 15.3 µM).

System: not listed separately
Assay: Antifungal activity against Cryptococcus neoformans after 24 hrs by two fold dilution method
Assay type: functional
Details: not given
`Clc1ccccc1C(c1ccccc1)(c1ccccc1)n1ccnc1` [CLOTRIMAZOLE] gave an MIC of 0.5 µg/mL (≈ 1.45 µM).
In the case of `O=[N+]([O-])c1ccc(N2C(O)CC(c3ccccc3)N2C(c2c[nH]c3ccccc23)N2CCOCC2)c([N+](=O)[O-])c1` (centres undefined), the MIC is reported as 64 µg/mL (≈ 118 µM).

System: not listed separately
Assay: Cytotoxicity against human HeLa cells after 48 hrs by MTT assay
Assay type: functional
Details: not given
In the case of `O=[N+]([O-])c1ccc(N2C(O)CC(c3ccccc3)N2C(c2ccccc2)N2CCOCC2)c([N+](=O)[O-])c1` (centres undefined), the LC50 is reported as greater than 100 µM.
`O=[N+]([O-])c1ccc(N2C(O)CC(c3ccccc3)N2C(c2c[nH]c3ccccc23)N2CCOCC2)c([N+](=O)[O-])c1` (centres undefined) gave a GI50 of 34.2 µM, an LC50 greater than 100 µM and a TGI of 72.1 µM.
Compound `O=[N+]([O-])c1ccc(N2C(O)CC(c3ccccc3)N2C(c2ccc(O)cc2)N2CCOCC2)c([N+](=O)[O-])c1` (centres undefined) has a GI50 of 41.3 µM, an LC50 greater than 100 µM and a TGI of 87.2 µM.

System: not listed separately
Assay: Antifungal activity against Microsporum audouinii after 24 hrs by two fold dilution method
Assay type: functional
Details: not given
Work on `Clc1ccccc1C(c1ccccc1)(c1ccccc1)n1ccnc1` [CLOTRIMAZOLE] yielded an MIC of 0.5 µg/mL (≈ 1.45 µM).
`O=[N+]([O-])c1ccc(N2C(O)CC(c3ccccc3)N2C(c2c[nH]c3ccccc23)N2CCOCC2)c([N+](=O)[O-])c1` (centres undefined) gave an MIC of 8 µg/mL (≈ 14.7 µM).
Compound `O=[N+]([O-])c1ccc(N2C(O)CC(c3ccccc3)N2C(c2ccc(O)cc2)N2CCOCC2)c([N+](=O)[O-])c1` (centres undefined) has an MIC of 8 µg/mL (≈ 15.3 µM).

System: Pseudomonas aeruginosa
Assay: Antibacterial activity against Pseudomonas aeruginosa after 24 hrs by two fold dilution method
Assay type: functional
Details: not given
In the case of `O=[N+]([O-])c1ccc(N2C(O)CC(c3ccccc3)N2C(c2c[nH]c3ccccc23)N2CCOCC2)c([N+](=O)[O-])c1` (centres undefined), the MIC is reported as 8 µg/mL (≈ 14.7 µM).
`O=[N+]([O-])c1ccc(N2C(O)CC(c3ccccc3)N2C(c2ccc(O)cc2)N2CCOCC2)c([N+](=O)[O-])c1` (centres undefined) gave an MIC of 15 µg/mL (≈ 28.8 µM).

System: not listed separately
Assay: Cytotoxicity against human MCF7 cells after 48 hrs by MTT assay
Assay type: functional
Details: MCF7, 48 h
Work on `O=[N+]([O-])c1ccc(N2C(O)CC(c3ccccc3)N2C(c2ccccc2)N2CCOCC2)c([N+](=O)[O-])c1` (centres undefined) yielded an LC50 greater than 100 µM.
In the case of `O=[N+]([O-])c1ccc(N2C(O)CC(c3ccccc3)N2C(c2c[nH]c3ccccc23)N2CCOCC2)c([N+](=O)[O-])c1` (centres undefined), the GI50 is reported as 24.4 µM, the LC50 is reported as 76.3 µM and the TGI is reported as 59.3 µM.
With `O=[N+]([O-])c1ccc(N2C(O)CC(c3ccccc3)N2C(c2ccc(O)cc2)N2CCOCC2)c([N+](=O)[O-])c1` (centres undefined) the LC50 was greater than 100 µM.

System: Escherichia coli
Assay: Antibacterial activity against Escherichia coli after 24 hrs by two fold dilution method
Assay type: functional
Details: not given
With `O=[N+]([O-])c1ccc(N2C(O)CC(c3ccccc3)N2C(c2ccccc2)N2CCOCC2)c([N+](=O)[O-])c1` (centres undefined) the MIC was 8 µg/mL (≈ 15.8 µM).
`O=[N+]([O-])c1ccc(N2C(O)CC(c3ccccc3)N2C(c2c[nH]c3ccccc23)N2CCOCC2)c([N+](=O)[O-])c1` (centres undefined) gave an MIC greater than 100 µg/mL.
`O=[N+]([O-])c1ccc(N2C(O)CC(c3ccccc3)N2C(c2ccc(O)cc2)N2CCOCC2)c([N+](=O)[O-])c1` (centres undefined) showed an MIC greater than 100 µg/mL.

System: not listed separately
Assay: Cytotoxicity against human HepG2 cells after 48 hrs by MTT assay
Assay type: functional
Details: HepG2, 48 h
In the case of `O=[N+]([O-])c1ccc(N2C(O)CC(c3ccccc3)N2C(c2ccccc2)N2CCOCC2)c([N+](=O)[O-])c1` (centres undefined), the GI50 is reported as 43.2 µM, the LC50 is reported as greater than 100 µM and the TGI is reported as 78.3 µM.
`O=[N+]([O-])c1ccc(N2C(O)CC(c3ccccc3)N2C(c2c[nH]c3ccccc23)N2CCOCC2)c([N+](=O)[O-])c1` (centres undefined) showed a GI50 of 15.9 µM, an LC50 of 54.8 µM and a TGI of 38.2 µM.
With `O=[N+]([O-])c1ccc(N2C(O)CC(c3ccccc3)N2C(c2ccc(O)cc2)N2CCOCC2)c([N+](=O)[O-])c1` (centres undefined) the GI50 was 36.3 µM, the LC50 was greater than 100 µM and the TGI was 65.3 µM.
